According to paper PMC11752117 (Journal of Traditional and Complementary Medicine, 2024):
Like-named read-outs stand apart in the source and are kept apart here.

Conditions: for concentration in plasma (molar) / concentration in plasma / concentration in lung tissue: 4 h after administration, respective extract 1000 mg/kg p.o.; for concentration in plasma / concentration in lung tissue: mean ± SD; for calculated concentration in lung tissue (molar): on the basis of lung water content approximately 80 % by weight
[1] = Day 1, infected hamsters, n = 4

SMILES	concentration in plasma (molar) (Day 1)	concentration in plasma [1]	concentration in lung tissue (Day 1)	calculated concentration in lung tissue (molar) (Day 1)	concentration in plasma (molar) (Day 3)	concentration in lung tissue (Day 3)	concentration in plasma (Day 3)	calculated concentration in lung tissue (molar) (Day 3)	average concentrations in lung tissue (range over sampling days, respective extract 1000 mg/kg/day p.o.)	concentration in plasma (molar) (Day 7)	concentration in lung tissue (Day 7)	concentration in plasma (Day 7)	calculated concentration in lung tissue (molar) (Day 7)
COc1cc(O)c(C(=O)[C@@H]2[C@H](CC=C(C)C)C(C)=CC[C@H]2c2ccccc2)c(O)c1 [Panduratin A, panduratin A]	~4.21 µM	1710.4 ± 284.3 ng/mL	0.186 ± 0.015 µg/g	0.37 µM	~7.27 µM	0.262 ± 0.047 µg/g	2954.1 ± 582.1 ng/mL	0.52 µM	0.19 to 0.26 µg/g				
C=C1CC[C@@H]2[C@](C)(CO)[C@H](O)CC[C@@]2(C)[C@@H]1C/C=C1/C(=O)OC[C@H]1O [Andrographolide, andrographolide]	~5.48 µM	1921.3 ± 508.4 ng/mL	0.750 ± 0.206 µg/g	1.72 µM	~5.51 µM	0.800 ± 0.144 µg/g	1930.1 ± 257.7 ng/mL	1.83 µM		~8.01 µM	0.850 ± 0.181 µg/g	2808.1 ± 547.4 ng/mL	~1.94 µM
